# Laboratory results from publication PMC4667271, “Discovery of a Novel Inhibitor of the Protein Tyrosine Phosphatase Shp2” (Scientific Reports, 2015).
# Test system: Gab1-Shp2 association in HEK293T cells
# Assay: Gab1-Shp2 co-immunoprecipitation, HEK293T
# Type: cell-based, human
# Procedure: Figure 3 Fumos inhibits Gab1-Shp2 association. HEK293T cells were serum-starved for 18 h, preincubated with or without Fumos (20 μM 24 h), and then treated with EGF (20 ng/ml, 5 min). (a) Shp2 was immunoprecipitated from cell lysate supernatants. (b) Gab1 was immunoprecipitated from cell lysate supernatants. Immunoprecipitates were analyzed by immunoblotting with antibodies to Gab1, RasGAP, pY and Shp2. (c) Densitometric analysis of p-Gab1/Shp2 ratio in the Western blots. **p = 0.002 < 0.01/F = 37 vs EGF. (d) Densitometric analysis of RasGAP/Gab1 ratio in the Western blots. **p < 0.01/F = 30 vs EGF, one-way ANOVA followed by Tukey’s test. Bars represent mean ± S.E.M. values from three experiments.
# Cells were washed with cold PBS twice and lysed in cell lysis buffer for 10 min on ice. Then the lytic cells were centrifugated with 13,000 g for 10 min at 4 °C. The supernatant was transferred to a fresh conical centrifuge tube on ice and added 1 μg of the appropriate control IgG, together with 20 μl of resuspended volume of Protein A/G PLUS-Agarose (Santa Cruz Biotechnology, CA), then incubated at 4 °C for 30 min. The pellet beads were centrifugated at 1,000 g for 5 min at 4 °C. The supernatant with approximately 100–500 μg total cellular protein was incubated with 2 μg primary antibody against Shp2 or Gab1 for 7 h at 4 °C. Then lysates containing protein-antibody complexes were incubated with 20 μl of Protein A/G PLUS-Agarose at 4 °C on a rotating device overnight. Immunoprecipitates were collected by centrifugation at 2,500 rpm and washed for 4 times with 1 ml lysis buffer, then suspended in the loading buffer, boiled, and analyzed by SDS-PAGE.
smiles,measurement,setting,value
"CC[C@@H](C)C[C@@H](C)/C=C(C)/C=C/C=C/C=C(\C)C(=O)c1c(O)c(-c2ccc(O)cc2)cn(O)c1=O [Fumos, Fumosorinone]",RasGAP coimmunoprecipitated with Gab1,"EGF-stimulated, Fumos 20 μM 24 h",dramatically increased
same,EGF-stimulated Gab1-Shp2 association (Gab1 in Shp2 immunoprecipitates),"Fumos 20 μM 24 h, EGF 20 ng/ml 5 min",much less Gab1 proteins were found
same,Gab1-Shp2 association without EGF,Fumos alone,induces Gab1-Shp2 association
same,tyrosine-phosphorylation of Gab1,"Fumos alone, no EGF",increased
